Measured values as given in patent US6156700A, “3-(1,2-Benzisothiazol- and isoxazol-5-yl)-2,4(1H,3H)-pyrimidinedione or thione and 3-(1,2-benzisothiazol- and isoxazol-5-yl)-4(3H)-pyrimidinone or thione herbicidal agents” (American Cyanmid Company, priority 1998, dated 2000).

What was measured:
ORYSAT Rice, Tebonnet = assay: Rice tolerance, flooded paddy (Table IV); format: in vivo, Oryza sativa; conditions: crop tolerance
Summary of the method: (§1)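 Weeds 3 to 5 cm tall and rice seedlings at the 1.5 to 2.5 leaf stage were flooded, water held 1.5 to 3 cm above soil. Compounds in 50/50 v/v aqueous/acetone went into the flood water at about 0.0313 to 0.500 kg/ha. Injury was rated visually three to four weeks later.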

[1] = test system: SAGPY Arrowhead (Pygmaea); assay: Postemergence weed control, flooded paddy (Table IV); format: in vivo, Sagittaria pygmaea
Summary of the method: as §1

[2] = test system: Soybean, Williams, Glycine max; assay: Postemergence herbicidal evaluation, GLXMAW; format: in vivo, (L.) Merr. cv Williams; conditions: 0.0630 kg/ha
Summary of the method: (§2)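 Visual 0–9 scoring against untreated control, made four to five weeks post-spray and averaged over repeat tests, covers stand, vigor, malformation, size and chlorosis. Treatment: foliar spray at 40 psi onto ~2-week seedlings, about 0.0157–0.500 kg/ha, compound in 1:1 acetone/water with 0.5% TWEEN 20.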

[3] = test system: Morningglory Spp., Ipomoea Spp.; assay: Preemergence herbicidal evaluation, IPOSS; format: in vivo; conditions: 0.2500 kg/ha
Summary of the method: (§3)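 Greenhouse preemergence test with soil-surface spray of compound (aqueous acetone, approx. 0.0156–0.500 kg per hectare) just after planting. Injury was scored visually on a 0–9 scale at 4–5 weeks.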

[4] = test system: Lambsquarters, Common, Chenopodium album; assay: Postemergence herbicidal evaluation, CHEAL; format: in vivo, L.
Summary of the method: as §2

[5] = test system: Foxtail, Green, Setaria viridis; assay: Postemergence herbicidal evaluation, SETVI; format: in vivo, (L.) Beau
Summary of the method: as §2

[6] = test system: Wheat, Winter, cv Riband, Triticum aestivum; assay: Preemergence herbicidal evaluation, TRZAWR; format: in vivo; conditions: 0.2500 kg/ha
Summary of the method: as §3

[7] = test system: Wheat, Winter, cv Riband, Triticum aestivum; assay: Postemergence herbicidal evaluation, TRZAWR; format: in vivo
Summary of the method: as §2

CYPIR Rice Flatsedge = assay: Postemergence weed control, flooded paddy (Table IV); format: in vivo, Cyperus iria
Summary of the method: as §1

CYPSE Flatsedge [8] = assay: Preemergence weed control, flooded paddy (Table III); format: in vivo, Cyperus serotinus
Summary of the method: (§4)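 Seeds or propagules sown in silt loam under 1.5 to 3 cm standing flood water; compound in 50/50 aqueous/acetone pipetted into the water at about 0.0313 to 0.500 kg/ha active ingredient. Greenhouse-held; herbicidal effect rated on a scale 3-4 weeks after treatment.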

[9] = test system: Morningglory, Ivyleaf, Ipomoea hederacea; assay: Preemergence herbicidal evaluation, IPOHE; format: in vivo, (L.) Jacq.; conditions: 0.2500 kg/ha
Summary of the method: as §3

[10] = test system: SAGPY Arrowhead (Pygmaea); assay: Preemergence weed control, flooded paddy (Table III); format: in vivo, Sagittaria pygmaea
Summary of the method: as §4

Corn, Field, Zea mays = assay: Postemergence herbicidal evaluation, ZEAMX; format: in vivo, L.
Summary of the method: as §2

[11] = test system: Barnyardgrass, Echinochloa crus-galli; assay: Postemergence herbicidal evaluation, ECHCG; format: in vivo, (L.) Beau
Summary of the method: as §2

MOOVA Monochoria = assay: Preemergence weed control, flooded paddy (Table III); format: in vivo, Monochoria vaginalis
Summary of the method: as §4

Galium, Galium aparine = assay: Preemergence herbicidal evaluation, GALAP; format: in vivo; conditions: 0.2500 kg/ha
Summary of the method: as §3

CYPSE Flatsedge [12] = assay: Postemergence weed control, flooded paddy (Table IV); format: in vivo, Cyperus serotinus
Summary of the method: as §1

Soybean, Glycine max = assay: Postemergence herbicidal evaluation, GLXMA; format: in vivo, (L.) Merr.; conditions: 0.2500 kg/ha
Protocol: In the tests, seedling plants are grown in jiffy flats for about two weeks. The test compounds are dispersed in 50/50 acetone/water mixtures containing 0.5% TWEEN®20, a polyoxyethylene sorbitan monolaurate surfactant of Atlas Chemical Industries, in sufficient quantities to provide the equivalent of about 0.0157 kg to 0.500 kg per hectare of active compound when applied to the plants through a spray nozzle operating at 40 psi for a predetermined time. After spraying, the plants are placed on greenhouse benches and are cared for in accordance with conventional greenhouse procedures. From four to five weeks after treatment, the seedling plants are examined and rated according to the rating system set forth below. Where more than one test is involved for a given compound, the data are averaged.
Results of herbicide evaluation are expressed on a rating scale (0-9). The scale is based upon a visual observation of plant stand, vigor, malformation, size, chlorosis and overall plant appearance as compared with a control.

[13] = test system: Sicklepod, Cassia obtusifolia; assay: Preemergence herbicidal evaluation, CASOB; format: in vivo, L.; conditions: 0.2500 kg/ha
Summary of the method: as §3

[14] = test system: Rice, Tebonnet, Oryza sativa; assay: Postemergence herbicidal evaluation, ORYSAT; format: in vivo, (L.) Tebonnet
Summary of the method: as §2

[15] = test system: Lambsquarters, Common, Chenopodium album; assay: Preemergence herbicidal evaluation, CHEAL; format: in vivo, L.; conditions: 0.2500 kg/ha
Summary of the method: as §3

How did the herbicidal effect rating (ORYSAT Rice, Tebonnet; 0.1250 kg/ha) turn out when `COC(=O)C(C)Oc1ccc(C)cc1-c1nsc2ccc(-n3c(=O)cc(C(F)(F)F)n(C)c3=O)cc12` (centres unmarked) [Compound 3] was run?
The herbicidal effect rating was 3.0.

And the herbicidal effect rating (ORYSAT Rice, Tebonnet; 0.2500 kg/ha)?
The herbicidal effect rating was 3.0.

What about the herbicidal effect rating (ORYSAT Rice, Tebonnet; 0.5000 kg/ha) of the same molecule?
The herbicidal effect rating was 3.0.

What about the herbicidal effect rating ([1]; 0.1250 kg/ha) of the same molecule?
Its herbicidal effect rating is 0.0.

And the herbicidal effect rating ([1]; 0.2500 kg/ha)?
Its herbicidal effect rating is 0.0.

And the herbicidal effect rating ([1]; 0.5000 kg/ha)?
Its herbicidal effect rating is 0.0.

What about the “herbicide rating (0-9)” value [2] of the same molecule?
The value was 7.0.

What about the “herbicide rating (0-9)” value [3] of the same molecule?
The value was 9.0.

What about the “herbicide rating (0-9)” value ([4]; 0.0630 kg/ha) of the same molecule?
Its value is 9.0.

And the “herbicide rating (0-9)” value ([4]; 0.2500 kg/ha)?
Its value is 9.0.

What about the “herbicide rating (0-9)” value ([5]; 0.0630 kg/ha) of the same molecule?
Its value is 9.0.

And the “herbicide rating (0-9)” value ([5]; 0.2500 kg/ha)?
The value was 9.0.

And the “herbicide rating (0-9)” value [6]?
Its value is 6.3.

What about the “herbicide rating (0-9)” value ([7]; 0.0630 kg/ha) of the same molecule?
The value was 8.8.

What about the “herbicide rating (0-9)” value ([7]; 0.2500 kg/ha) of the same molecule?
The value was 8.0.

What about the herbicidal effect rating (CYPIR Rice Flatsedge; 0.1250 kg/ha) of the same molecule?
The herbicidal effect rating was 9.0.

What about the herbicidal effect rating (CYPIR Rice Flatsedge; 0.2500 kg/ha) of the same molecule?
Its herbicidal effect rating is 9.0.

And the herbicidal effect rating (CYPIR Rice Flatsedge; 0.5000 kg/ha)?
The herbicidal effect rating was 9.0.

And the herbicidal effect rating (CYPSE Flatsedge [8]; 0.0313 kg/ha)?
Its herbicidal effect rating is 0.0.

And the herbicidal effect rating (CYPSE Flatsedge [8]; 0.0625 kg/ha)?
The herbicidal effect rating was 0.0.

And the herbicidal effect rating (CYPSE Flatsedge [8]; 0.1250 kg/ha)?
Its herbicidal effect rating is 0.0.

What about the herbicidal effect rating (CYPSE Flatsedge [8]; 0.2500 kg/ha) of the same molecule?
The herbicidal effect rating was 2.0.

What about the herbicidal effect rating (CYPSE Flatsedge [8]; 0.5000 kg/ha) of the same molecule?
Its herbicidal effect rating is 4.0.

What about the “herbicide rating (0-9)” value [9] of the same molecule?
The value was 9.0.

What about the herbicidal effect rating ([10]; 0.0313 kg/ha) of the same molecule?
Its herbicidal effect rating is 0.0.

And the herbicidal effect rating ([10]; 0.0625 kg/ha)?
Its herbicidal effect rating is 2.0.

What about the herbicidal effect rating ([10]; 0.1250 kg/ha) of the same molecule?
The herbicidal effect rating was 6.0.

And the herbicidal effect rating ([10]; 0.2500 kg/ha)?
Its herbicidal effect rating is 8.0.

What about the herbicidal effect rating ([10]; 0.5000 kg/ha) of the same molecule?
The herbicidal effect rating was 9.0.

What about the “herbicide rating (0-9)” value (Corn, Field, Zea mays; 0.0630 kg/ha) of the same molecule?
Its value is 8.3.

What about the “herbicide rating (0-9)” value (Corn, Field, Zea mays; 0.2500 kg/ha) of the same molecule?
The value was 9.0.

And the “herbicide rating (0-9)” value ([11]; 0.0630 kg/ha)?
The value was 9.0.

And the “herbicide rating (0-9)” value ([11]; 0.2500 kg/ha)?
Its value is 9.0.

And the herbicidal effect rating (MOOVA Monochoria; 0.0313 kg/ha)?
Its herbicidal effect rating is 9.0.

What about the herbicidal effect rating (MOOVA Monochoria; 0.0625 kg/ha) of the same molecule?
Its herbicidal effect rating is 9.0.

And the herbicidal effect rating (MOOVA Monochoria; 0.1250 kg/ha)?
The herbicidal effect rating was 9.0.

And the herbicidal effect rating (MOOVA Monochoria; 0.2500 kg/ha)?
The herbicidal effect rating was 9.0.

And the herbicidal effect rating (MOOVA Monochoria; 0.5000 kg/ha)?
The herbicidal effect rating was 9.0.

What about the “herbicide rating (0-9)” value (Galium, Galium aparine) of the same molecule?
The value was 7.6.

And the herbicidal effect rating (CYPSE Flatsedge [12]; 0.1250 kg/ha)?
The herbicidal effect rating was 0.0.

And the herbicidal effect rating (CYPSE Flatsedge [12]; 0.2500 kg/ha)?
The herbicidal effect rating was 0.0.

And the herbicidal effect rating (CYPSE Flatsedge [12]; 0.5000 kg/ha)?
The herbicidal effect rating was 0.0.

And the “herbicide rating (0-9)” value (Soybean, Glycine max)?
The value was 7.5.

What about the “herbicide rating (0-9)” value [13] of the same molecule?
The value was 9.0.

And the “herbicide rating (0-9)” value ([14]; 0.0630 kg/ha)?
Its value is 7.2.

And the “herbicide rating (0-9)” value ([14]; 0.2500 kg/ha)?
The value was 9.0.

What about the “herbicide rating (0-9)” value [15] of the same molecule?
Its value is 9.0.
